What follows are molecules tested on Apolipoprotein B Secretion from HepG2 Cells (assay: Inhibition of Apolipoprotein B secretion from HepG2 cells (ELISA)). Conditions: HepG2 cells, 22-24 hours incubation, ApoB ELISA; Low/High IC50 columns give the 95% confidence interval.
Format: cell-based, human
Procedure: Inhibition of Apolipoprotein B Secretion from HepG2 Cells
To assess the inhibitory effect of the compounds of the invention on ApoB production, an endogenously ApoB producing cell line, HEPG2, was implemented in an in vitro ELISA assay. HEPG2 cells are plated at 25,000 per well (96-well plates) in media consisting of DMEM Low Glucose, 1% NEAA (non-essential amino acids), 10% FBS (heat inactivated), 1% L-Glutamine, and 1% Antimycotic-Antibiotic and incubated for 16-18 hours at 37° C. and 5% CO2. After the 16-18 hour incubation, a 12 point half-log serial of the inhibitor (1000 nM-0.003 nM) is prepared, and 1.5 ul of the serial dilution is added to HEPG2 cells, which have had their media decanted and replaced with 148 ul of fresh media, and the cells are incubated for 22-24 hours at 37° C. and 5% CO2. Two and a half hours before the 22-24 hour incubation period is completed, Nunc Maxisorp plates are coated with 100 ul of primary (coating) antibody (goat anti-apoB), diluting to a ratio of 1:1000 in 1% Carbonate-Bicarbonate Coating Buffer and incubated for at least 2 hours at room temperature before the primary antibody is decanted and the wells of the microplate are washed with 200 ul of washing buffer (1% PBS, 0.05% Tween20). Next, 200 ul of blocking buffer (1% PBS, 1:500 Western Block, 5 mg/ml BSA) is added to the wells of the microplate, and incubated for at least 30 mins. Following the 22-24 hours incubation period, cell plates are removed from the incubator, 20 ul of supernatant from each well is aspirated, added to a corresponding well in 96 well plate containing 140 ul of diluent (1:2-Blocking Buffer: Washing Buffer), and mixed. Then, 120 ul is aspirated from the dilutent-supernatant plate, added to the blocked Nunc Maxisorp 96 well plate, and placed at room temperature on a shaker to mix for at least 2 hours. The secondary (capture) antibody (mouse anti-human apoB) is prepared at a ratio of 1:4000, and the detection antibody (goat anti-mouse HRP conjugated antibody) at a ratio of 1:10,000. For each antibody, 100 ul is added to each well of the microplate and the microplate is incubated at room temperature for 2 hours, washing the microplates between each antibody addition. Colorimetric development is achieved by adding 50 ul of TMB reagent to each well, incubating for 5 mins at room temperature, then adding 50 ul of 2M Sulfuric Acid to each well. Absorbance at 450 nm is monitored in an Envision plate reader to measure the amount of ApoB formed.
Results reported as average IC50, low and high IC50 range (95% confidence interval).

Compound	IC50
CCOC(=O)C1(COC(=O)Cc2ccc(NC(=O)c3cccc(C)c3-c3ccc(C(F)(F)F)cc3)c(C(=O)N(C)C)c2)NC(=O)c2ccccc21 (stereo not shown) [Example 11]	29.4 nM
CCOC(=O)C1(COC(=O)Cc2ccc(NC(=O)c3ccccc3-c3ccc(C(F)(F)F)cc3)c(C(=O)N(C)C)c2)c2ccccc2C(=O)N1CC (stereo not shown) [Example 19]	0.107 nM
CCOC(=O)C1(COC(=O)Cc2ccc(NC(=O)c3ccccc3-c3ccc(C(F)(F)F)cc3)c(C(=O)N(C)C)c2)CCc2cccnc21 (stereo not shown) [Example 39]	2.34 nM
CCOC(=O)C1(COC(=O)Cc2ccc(NC(=O)c3ccccc3-c3ccc(C(F)(F)F)cc3)c(C(=O)N(C)C)c2)NC(=O)c2ccccc21 (stereo not shown) [Example 24]	28 nM
CCOC(=O)C1(COC(=O)Cc2ccc(NC(=O)c3ccccc3-c3ccc(C(F)(F)F)cc3)c(C(=O)N(C)C)c2)OC(=O)c2ccccc21 (stereo not shown) [Example 31]	10.1 nM
CCOC(=O)C1(COC(=O)Cc2ccc(NC(=O)c3cccc(C)c3-c3ccc(C(F)(F)F)cc3)c(C(=O)N(C)C)c2)c2ncccc2C(=O)N1CC (stereo not shown) [Example 47, Ethyl 7-({2-[3-(Dimethylcarbamoyl)-4-({[6-methyl-4′-(trifluoromethyl)biphenyl-2-yl]carbonyl}amino)phenyl]acetoxy}methyl)-6-ethyl-5-oxo-6,7-dihydro-5H-pyrrolo[3,4-b]pyridine-7-carboxylate]	7.56 nM
CCOC(=O)C1(COC(=O)Cc2ccc(NC(=O)c3ccccc3-c3ccc(C(F)(F)F)cc3)c(C(=O)N(C)C)c2)CCCc2ccccc21 (single isomer, unassigned; (+)) [Example 46, (+)-Ethyl 1-({2-[3-(Dimethylcarbamoyl)-4-({[4′-(trifluoromethyl)biphenyl-2-yl]carbonyl}amino)phenyl]acetoxy}methyl)-1,2,3,4-tetrahydronaphthalene-1-carboxylate]	1.66 nM
CCOC(=O)C1(COC(=O)Cc2ccc(NC(=O)c3ccccc3-c3ccc(C(F)(F)F)cc3)c(C(=O)N(C)C)c2)CCc2ccccc21 (stereo not shown) [Example 36]	4.6 nM
CN(C)C(=O)c1cc(CC(=O)OCC2(C(=O)OCc3ccccc3)c3ccccc3C(=O)N2C)ccc1NC(=O)c1ccccc1-c1ccc(C(F)(F)F)cc1 (stereo not shown) [Example 22]	83.5 nM
Cc1cccc(C(=O)Nc2ccc(CC(=O)OCC3(C(=O)OCc4ccccc4)c4ccccc4C(=O)N3C)cc2C(=O)N(C)C)c1-c1ccc(C(F)(F)F)cc1 (single isomer, unassigned; (-)) [Example 9, (−)-Benzyl 1-({2-[3-(Dimethylcarbamoyl)-4-({[6-methyl-4′-(trifluoromethyl)biphenyl-2-yl]carbonyl}amino)phenyl]acetoxy}methyl)-2-methyl-3-oxoisoindoline-1-carboxylate]	0.2 nM
CCOC(=O)[C@]1(COC(=O)Cc2ccc(NC(=O)c3ccccc3-c3ccc(OC(C)C)cc3)c(C(=O)N(C)C)c2)c2ccccc2C(=O)N1C [Example 77, Ethyl (1R)-1-({2-[3-(dimethylcarbamoyl)-4-{[(4′-isopropoxybiphenyl-2-yl)carbonyl]amino}phenyl]acetoxy}methyl)-2-methyl-3-oxoisoindoline-1-carboxylate]	0.119 nM
CCOC(=O)C1(COC(=O)Cc2ccc(NC(=O)c3ccccc3-c3ccc(C(F)(F)F)cc3)c(C(=O)N(C)C)c2)CCc2cccnc21 (stereo not shown) [Example 38]	19.9 nM

Same assay, conditions: Homo sapiens, HepG2, HepG2 cells, 22-24 hours incubation, ApoB ELISA; Low/High IC50 columns give the 95% confidence interval

Compound	IC50
CCOC(=O)C1(COC(=O)Cc2ccc(NC(=O)c3ccc(C(F)(F)F)cc3-c3ccc(C(F)(F)F)cc3)c(C(=O)N(C)C)c2)CCc2cccnc21 (stereo not shown) [Example 58, ethyl 7-({2-[4-({[4′,5-bis(trifluoromethyl)biphenyl-2-yl]carbonyl}amino)-3-(dimethylcarbamoyl)phenyl]acetoxy}methyl)-6,7-dihydro-5H-cyclopenta[b]pyridine-7-carboxylate]	7.18 nM
CCOC(=O)C1(COC(=O)Cc2ccc(NC(=O)c3ccc(C(F)(F)F)cc3-c3ccc(C(F)(F)F)cc3)c(C(=O)N(C)C)c2)OC(=O)c2ccccc21 (stereo not shown) [Example 3]	15.7 nM
CCOC(=O)C1(COC(=O)Cc2ccc(NC(=O)c3ccccc3-c3ccc(C(F)(F)F)cc3)cc2)c2ccccc2C(=O)N1C (stereo not shown) [Example 18]	23.9 nM
CCOC(=O)C1(COC(=O)Cc2ccc(NC(=O)c3ccccc3-c3ccc(C(F)(F)F)cc3)c(C(=O)N(C)C)c2)c2ccccc2C(=O)N1CC (racemic) [Example 15]	1.45 nM
CCOC(=O)[C@]1(COC(=O)Cc2ccc(NC(=O)c3ccccc3-c3ccccc3OC)c(C(=O)N(C)C)c2)c2ccccc2C(=O)N1C [Example 75, ethyl (1R)-1-({2-[3-(dimethylcarbamoyl)-4-{[(2′-methoxybiphenyl-2-yl)carbonyl]amino}phenyl]acetoxy}methyl)-2-methyl-3-oxoisoindoline-1-carboxylate]	4.16 nM
CCOC(=O)C1(COC(=O)Cc2ccc(NC(=O)c3ccccc3-c3ccc(C(F)(F)F)cc3)c(C(=O)N(C)C)c2)CCc2ccccc21 (racemic) [Example 29]	2.04 nM
COC(=O)C1(COC(=O)Cc2ccc(NC(=O)c3ccccc3-c3ccc(C(F)(F)F)cc3)c(C(=O)N(C)C)c2)CCc2ccccc21 (stereo not shown) [Example 33]	6.5 nM
CCOC(=O)C1(COC(=O)Cc2ccc(NC(=O)c3cccc(C)c3-c3ccc(C(C)(C)C)cc3)c(C(=O)N(C)C)c2)OC(=O)c2ccccc21 (stereo not shown) [Example 2]	519 nM
COC(=O)C1(COC(=O)Cc2ccc(NC(=O)c3ccccc3-c3ccc(C(F)(F)F)cc3)c(C(=O)N(C)C)c2)CCc2ccccc21 (racemic) [Example 28]	3.17 nM
CCOC(=O)C1(COC(=O)Cc2ccc(NC(=O)c3ccccc3-c3ccc(C(F)(F)F)cc3)c(C(=O)N(C)C)c2)c2ccccc2C(=O)N1C (racemic) [Example 4]	0.846 nM
CCOC(=O)[C@]1(COC(=O)Cc2ccc(NC(=O)c3cccc(OC)c3-c3ccc(OC(C)C)cc3)c(C(=O)N(C)C)c2)c2ccccc2C(=O)N1C [Example 63, ethyl (1R)-1-({2-[3-(dimethylcarbamoyl)-4-{[(4′-isopropoxy-6-methoxybiphenyl-2-yl)carbonyl]amino}phenyl]acetoxy}methyl)-2-methyl-3-oxoisoindoline-1-carboxylate]	0.119 nM
CCOC(=O)C1(COC(=O)Cc2ccc(NC(=O)c3ccccc3-c3ccc(C(F)(F)F)cc3)c(C)c2)c2ccccc2C(=O)N1C (stereo not shown) [Example 17]	3.07 nM
CCOC(=O)C1(COC(=O)Cc2ccc(NC(=O)c3cccc(C)c3-c3ccc(OC(C)C)cc3)c(C(=O)N(C)C)c2)CCc2cccnc21 (stereo not shown) [Example 57, ethyl 7-({2-[3-(dimethylcarbamoyl)-4-{[(4′-isopropoxy-6-methylbiphenyl-2-yl)carbonyl]amino}phenyl]acetoxy}methyl)-6,7-dihydro-5H-cyclopenta[b]pyridine-7-carboxylate]	1.37 nM
CCOC(=O)C1(COC(=O)Cc2ccc(NC(=O)c3cccc(C)c3-c3ccc(C(C)C)cc3)c(C(=O)N(C)C)c2)c2ccccc2C(=O)N1C (stereo not shown) [Example 53]	0.242 nM
CCOC(=O)C1(COC(=O)Cc2ccc(NC(=O)c3ccccc3-c3ccc(C(F)(F)F)cc3)c(C(=O)N(C)C)c2)CCCc2ccccc21 (single isomer, unassigned; (-)) [Example 45, (−)-Ethyl 1-({2-[3-(Dimethylcarbamoyl)-4-({[4′-(trifluoromethyl)biphenyl-2-yl]carbonyl}amino)phenyl]acetoxy}methyl)-1,2,3,4-tetrahydronaphthalene-1-carboxylate]	1.63 nM
CCOC(=O)[C@]1(COC(=O)Cc2ccc(NC(=O)c3ccc(OC)cc3-c3ccc(C(C)(C)C)cc3)c(C(=O)N(C)C)c2)c2ccccc2C(=O)N1C [Example 69, ethyl (1R)-1-({2-[4-{[(4′-tert-butyl-5-methoxybiphenyl-2-yl)carbonyl]amino}-3-(dimethylcarbamoyl)phenyl]acetoxy}methyl)-2-methyl-3-oxoisoindoline-1-carboxylate]	0.18 nM
CCOC(=O)C1(COC(=O)Cc2ccc(NC(=O)c3ccccc3-c3ccc(C(F)(F)F)cc3)c(C(=O)N(C)C)c2)CCc2cccnc21 (racemic) [Example 37]	8.47 nM
CCOC(=O)C1(COC(=O)Cc2ccc(NC(=O)c3ccccc3-c3ccc(C(F)(F)F)cc3)c(C(=O)N(C)C)c2)c2ccccc2C(=O)N1Cc1ccc(OC)cc1OC (racemic) [Example 27]	30.8 nM
CCOC(=O)C1(COC(=O)Cc2ccc(NC(=O)c3ccccc3-c3ccc(C(F)(F)F)cc3)c(C(=O)N(C)C)c2)NC(=O)c2ccccc21 (racemic) [Example 21]	16.5 nM
